The source of these data is patent US5358936A, “Anionic furanose derivatives, methods of making and using the same” (Gordon; Paul, priority 1991, dated 1994).

The subject of series [1] is rat paw. The conditions noted are these: in vivo; cited from earlier work.
For series [2], the system named is rat paw. In words: Post-ischemic reperfusion paw swelling (Example 22). The series is classed as in vivo, Sprague Dawley male rats. The conditions noted are these: for Swelling change as a result of treatment: 30 minutes; for Post-ischemic reperfusion 30 minute paw swelling, Mn ± SE: P < 0.02. The text has this:
This important disease model is used to evaluate aspects of tissue injury that occur in heart attack, or myocardial infarction, and stroke. Under these conditions, a significant period of injury can occur after blood flow has been restored, during the period of reperfusion.
To produce ischemia, blood flow to the left hind foot was largely interrupted by application of a tourniquet made up of two size 18 rubber bands wound eight times around the leg just behind the heel. […] Both application and removal of tourniquet were carried out under ether anesthesia. Injury was equated with organ swelling, which was assayed by measurement of the dorsoventral foot diameter with a Schnelltaster caliper, just before application of the tourniquet and at various times following tourniquet removal, during the reperfusion period.
Rats employed were Sprague Dawley males, weighing 240-280 grams. Drug comparisons were made here employing measurements 30 minutes into the reperfusion period. The widely studied drug allopurinol, a xanthine oxidase inhibitor and a free radical scavenging agent, used in the treatment of gout, and widely used to suppress experimental post-ischemic reperfusion injury was used as an experimental treatment standard. In studies below, allopurinol and all new drugs were given intraperitoneally 45-60 minutes prior to application of the tourniquet. Data are reported as the mean swelling (Mn)±standard error (SE). […] Group n is 5 or 6.
In another study, drug comparisons were made at various times after the reperfusion period. In this study, control and drug treatment groups were as above.

Another series concerns platelet aggregation. The series can be described thus: Mouse tail bleeding time (Example 31 B). Format: in vivo. Particulars: 100 mg/kg intraperitoneal. The procedure: A study of mouse tail bleeding time, which is an in vivo model of platelet aggregation and thrombosis was also conducted. In this widely employed model, bleeding was induced by a standardized transection of the tail tip and subsequent bleeding time was determined after vertical immersion of the tails in isotonic saline at 37° C. for thirty seconds.
Two compounds of the invention, Compound III and Compound VIII, were assessed as compared with aspirin, in another study of mouse tail bleeding time. In this study, the mice were housed in a standard animal room rather than in a noisy small animal isolator. Also, all three drugs were administered by an intraperitoneal route, rather than a subcutaneous route for Compound III and an intraperitoneal route for aspirin.

The next series has as its system stomach ulcers. The series can be described thus: Gastric ulcers in rats with corona virus infection treated with indomethacin (Example 26). Format: in vivo, rat. Particulars: indomethacin 30 mg/kg oral. The text has this: Corona virus is a non-lethal upper respiratory viral pathogen that not infrequently infects rat colonies. It is a type of rodent coryza or catarrh, the equivalent of a disease that falls somewhere between human influenza and a severe common cold. The animals of this study suffered from this condition, a circumstance which was evident by observation, and which was confirmed by virological diagnosis at the Biological Resources Laboratory of the University of Illinois at Chicago. Since stress is a common component of peptic ulcer development in both animals and man, it was concluded that this feature of the status of these experimental animals rendered them appropriate for an ulcer study.
In this study, animals were not food deprived and were divided into treatment groups such that 15 rats received 30 mg/kg indomethacin alone (in water by oral gavage), 14 rats received indomethacin plus an injection of 25 mg/kg cimetidine subcutaneously, and 7 rats received indomethacin plus subcutaneous injection of 17.5 mg/kg of Compound III.
All animals were sacrificed by ether euthanasia 24 hours later and their stomachs evaluated for ulcer pathology. In this study ulcers were not hemorrhagic. Results are shown below as the average number of stomach ulcers per stomach.

The test system of a further series is peritoneal neutrophils. The series can be described thus: In vitro neutrophil chemotaxis toward zymosan-activated rat serum (Example 24). Format: cell-based, mouse. Particulars: for IC50: 6 h, read-out: ID50 (molar concentration that inhibited chemotaxis by 50 percent). The procedure: In vitro neutrophil chemotaxis studies were carried out by standard methods, as follows:
Mice were injected with complete Freund's adjuvant (CFA) and peritoneal cells, principally neutrophjls (>90 percent), were reproved from the mice 24 hours thereafter. Blind-well chemotactic chambers (Nucleopore Corp., Pleasanton, Calif.) were utilized.
Medium (RPMI 1640 plus 10 percent fetal calf serum) or medium plus 20 percent zymosan-activated rat serum (ZAS) was added to the lower compartment of each chamber. A nucleopore filter (8 μm pore size) was placed between compartments and 1×10^5 peritoneal neutrophils (above) suspended in medium were placed in the upper compartment. Chambers were incubated for six hours, after which time the filters were removed and stained with Giemsa stain. The number of cells on the lower surface of the filter was counted under a microscope. Treatment groups were assayed in duplicate.
The studies were carried out more specifically as follows:
Zymosan (Sigma Chemical Co., St. Louis, Mo.) was mixed with rat serum for one hour at 37° C. at 1 milligram (mg)/ml. The resulting chemoattractant composition was filtered, aliquotted and stored frozen at -70° C. prior to use.
The above chemoattractant composition was used as a 20 percent v/v solution in medium.
The chemotaxis chambers were arranged as follows:
The chambers were incubated at 37° C. for six hours, after which the chambers were dismantled, and the filters removed and treated as follows:
a) The filters were immersed in Giemsa stain diluted 1:50 for 30-45 minutes.
b) The stained filters were rinsed gently in distilled water for 3-5 minutes.
c) The stained, rinsed filters were air dried without blotting.
Several compounds described herein and control compounds ("drug", above) were examined at various concentrations, in duplicate. The molar concentration of a drug that inhibited the observed chemotaxis by 50 percent, defined as the ID50 value, was determined as shown below.

Series [3] in a line: Dissolution and buffering of suspensions, HCl titration (Example 16).
Description: Note that the term "apparent pK" in this context is meant to encompass the maximization of buffering that come both from solid-state dissolution and its titration as solute.
Where [4] appears, read: Mus musculus, Neutrophil, read-out: Percent Inhibition of chemotaxis.
[5] abbreviates: Mus musculus, Neutrophil, 20 percent zymosan-activated rat serum, six hours, 37° C.
Setting [6] is: Mus musculus, Neutrophil, dose 1.0 μg/ml, read-out: Percent Inhibition of chemotaxis.
[7] abbreviates: Mus musculus, Neutrophil, dose 0.1 μg/ml, read-out: Percent Inhibition of chemotaxis.
Where [8] appears, read: Mus musculus, Neutrophil, dose 10.0 μg/ml, read-out: Percent Inhibition of chemotaxis.

One may read the inhibition as the relative decrease from the control value, in per cent.

Counter-ions that a name gives are not always drawn. Like-named read-outs stand apart in the source and are kept apart here.

As to `Oc1ncnc2[nH]ncc12` [Allopurinol, reference compound], in the series on rat paw [1], the “effect on edema that develops following removal of the tourniquet, in words” value (shortened to “effect”) is on record as “suppress the edema” and the “near toxic level at which allopurinol is utilized in reperfusion injury” value was 20 to 30 mg/kg. Also, the “Swelling change as a result of treatment” value in the series with rat paw [2] (study B, i.p., Compound III 0.2 mg/kg, allopurinol 20 mg/kg) was -35%. The “Post-ischemic reperfusion 30 minute paw swelling, Mn ± SE” value in the series on rat paw [2] (study B, i.p., Compound III 0.2 mg/kg, allopurinol 20 mg/kg, control 20.5 ± 0.76) was 13.3 ± 0.56 0.1 mm.

For the compound `CC(=O)Oc1ccccc1C(=O)O` [Aspirin, reference compound], the “% Increase in bleeding time” value with platelet aggregation is on record as 97%. For the same compound, the “Mouse Tail Bleeding Time” value in the series with platelet aggregation (control 37.0 ± 5.25) is 72.88 ± 10.9 s.

Consider `CN/C(=N/CCSCc1nc[nH]c1C)NC#N` [Cimetidine, reference compound], for which, in the series with stomach ulcers (cimetidine 25 mg/kg s.c. or Compound III 17.5 mg/kg s.c.), the “Percent Inhibition of ulcer frequency” value came to 58%. Further, the “Ulcer Frequency per stomach, Mn ± SE” value in the series on stomach ulcers (cimetidine 25 mg/kg s.c. or Compound III 17.5 mg/kg s.c. where given, P<0.02) worked out at 1.07 ± 0.25 Per Stomach.

As for `O=S(=O)(O)OC[C@@H](OS(=O)(=O)O)[C@H]1O[C@H](O)[C@H](O)[C@H]1OS(=O)(=O)O` [Compound II, 3,5,6-Tri-O-sulfo-α-D-glucofuranose, tripotassium salt], the IC50 with peritoneal neutrophils (Mus musculus, Neutrophil) worked out at 30 µM. Moreover, in the series with peritoneal neutrophils (setting [4]), the inhibition at 0.1 µg/mL came out at 2.5%, the inhibition at 1 µg/mL turned out to be 45.5% and the inhibition at 10 µg/mL turned out to be 48.5%.

For the compound `CCCCC1(CCCC)O[C@H]2O[C@H]([C@@H](COS(=O)(=O)O)OS(=O)(=O)O)[C@H](OS(=O)(=O)O)[C@H]2O1` [Compound IV, 1,2-O-(5-Nonylidene)-3,5,6-tri-O-sulfo-α-D-glucofuranose, tripotassium salt], in the series with rat paw [2] (study D, 0.2 mg/kg i.p., control 11.4 ± 0.51), the “Post-ischemic reperfusion 30 minute paw swelling, Mn ± SE” value is 21.2 ± 2.25 0.1 mm. Also, the “Swelling change as a result of treatment” value in the series with rat paw [2] (study D, 0.2 mg/kg i.p., edema enhancement) is on record as “+86%”. The IC50 in the series on peritoneal neutrophils (setting [5]) is above 10 µM. The inhibition at 1 µg/mL in the series on peritoneal neutrophils (setting [6]) is 44%. Further, the “Percent Inhibition of chemotaxis” value in the series with peritoneal neutrophils (dose 1.0 μg/ml, tripotassium salt) is 28.5%.

For `CCC1(CC)O[C@H]2O[C@H]([C@@H](COS(=O)(=O)O)OS(=O)(=O)O)[C@H](OS(=O)(=O)O)[C@H]2O1` [Compound V, 1,2-O-(3-Pentylidene)-3,5,6-tri-O-sulfo-α-D-glucofuranose, tripotassium salt], the IC50 in the series on peritoneal neutrophils (setting [5]) came out at 2 µM. The inhibition at 0.1 µg/mL in the series with peritoneal neutrophils (setting [7]) was -8%. For the same compound, the inhibition at 1 µg/mL in the series with peritoneal neutrophils (setting [6]) was 62%. Besides, in the series on peritoneal neutrophils (setting [8]), the inhibition at 10 µg/mL amounted to 101%.

For `O=S(=O)(O)OC[C@H]1O[C@H](OS(=O)(=O)O)[C@H](O)[C@@H](OS(=O)(=O)O)[C@@H]1O` [Compound VII, 1,3,6-Tri-O-sulfo-α-D-glucopyranose, tripotassium salt, reference compound], the IC50 with peritoneal neutrophils (Mus musculus, Neutrophil) is below 100 µM. Besides, in the series on peritoneal neutrophils (setting [4]), the inhibition at 0.1 µg/mL amounted to 8%, the inhibition at 1 µg/mL is 23% and the inhibition at 10 µg/mL is 29%.

Take `C[C@@H]1C[C@H]2[C@@H]3CCC4=CC(=O)C=C[C@]4(C)[C@@]3(F)[C@@H](O)C[C@]2(C)[C@@]1(O)C(=O)CO` [Dexamethasone]: in the series on rat paw [1], the “effect” value is recorded as “effective only when administered more than three hours in advance”.

For the compound `CCCCC[C@H](O)/C=C/[C@H]1[C@H](O)CC(=O)[C@@H]1C/C=C\CCCC(=O)O` [PGE2, Prostaglandin E2, reference compound], in the series on peritoneal neutrophils (setting [5]), the IC50 was found to be 0.1 µM. For the same compound, the inhibition at 0.01 µg/mL in the series with peritoneal neutrophils (Mus musculus, Neutrophil, dose 0.01 μg/ml, read-out: Percent Inhibition of chemotaxis) is 71%. For the same compound, the inhibition at 0.1 µg/mL with peritoneal neutrophils (setting [7]) stood at 91.5%. Also, in the series on peritoneal neutrophils (Mus musculus, Neutrophil, dose 0.2 μg/ml, read-out: Percent Inhibition of chemotaxis), the inhibition at 0.2 µg/mL is 71.5%. In addition, in the series with peritoneal neutrophils (in vitro), the “relative activity in inhibiting neutrophil chemotaxis, in words” value is listed as “about equally as active as Compound III”.

Take `C[C@]12C=CC(=O)C=C1CC[C@@H]1[C@@H]2C(=O)C[C@@]2(C)[C@H]1CC[C@]2(O)C(=O)CO` [Prednisone, reference compound]: the IC50 in the series with peritoneal neutrophils (setting [5]) was above 50 µM. The inhibition at 0.1 µg/mL in the series on peritoneal neutrophils (setting [7]) worked out at 15.5%. Besides, the inhibition at 1 µg/mL in the series on peritoneal neutrophils (setting [6]) was found to be 16%. Moreover, the inhibition at 10 µg/mL in the series on peritoneal neutrophils (setting [8]) was 20%.

On to `CC(=O)Nc1ccc(C=Cc2ccc(N=C=S)cc2S(=O)(=O)O)c(S(=O)(=O)O)c1` [SITS, 4-acetamido-4'-isothiocyano-stilbene-2,2'-disulfonate, reference compound], for which the IC50 in the series on peritoneal neutrophils (Mus musculus, Neutrophil) is above 20 µM. In the series on peritoneal neutrophils (setting [4]), the inhibition at 0.1 µg/mL was determined as 18.5%, the inhibition at 1 µg/mL is -12.5% and the inhibition at 10 µg/mL turned out to be 48.5%.

Consider `[OH][Al]([OH])[OH]` [aluminum trihydroxide, reference compound], for which the “HCl needed to lower pH of suspension to below pH 2.00” value in series [3] (50 mg in 20 ml distilled water, initial pH 4.44 (aluminum trihydroxide), 4.91 (sucralfate), 4.23 (Compound III:Al), water alone 0.30) amounted to 0.90 meq. Moreover, the “buffering action, in words” value in series [3] (HCl titration) is “only minor buffering power relative to distilled H2 O, but no pK”.

On to `O=C(O)Cc1ccccc1Nc1c(Cl)cccc1Cl` [diclofenac], for which the “effect” value in the series on rat paw [1] was “not effective at any time”.
